Data reported in US20040058948A1, “Mappicine analogs, methods of inhibiting retroviral reverse transcriptase and methods of treating retroviruses” (priority 2002, published 2004).
“And” between values parts separate entries of the source, which are not always exact repeats. Identical values can stand only once.

What was measured:
[1] = target: T1, RNA-dependent DNA polymerase activity of HIV reverse transcriptase (Human immunodeficiency virus type 1 group M subtype B, UniProt P04585); test: RNA-dependent DNA polymerase activity assay of HIV reverse transcriptase; assay type: biochemical, HIV-1; settings: 10 μM inhibitor concentration, activity with analog / without analog x 100
T1 construct: made in house
Procedure: In separate, representative assays, mappicine analogs were tested for their ability to inhibit the RNA-dependent DNA polymerase activity of HIV reverse transcriptase and for their ability to inhibit the RNase H activity of HIV reverse transcriptase. The assay for RNA-dependent DNA polymerase activity is discussed in Borkow, G. et al., “Inhibition of the Ribonuclease H and DNA Polymerase Activities of HIV-1 Reverse Transcriptase by N-(4-tert-Butylbenzoyl)-2-hydroxy-1-naphthaldehyde Hydrazone,” Biochemistry 1997, 36, 3179-3185, a copy of which is attached hereto, and the disclosure of which is incorporated herein by reference. Assays were carried out in the absence and in the presence of mappicine analogs (10 μM final concentration). The results are reported as % residual activity, which is the RNA-dependent DNA polymerase activity of the enzyme in the presence of the mappicine analog divided by the RNA-dependent activity of the enzyme in the absence of the mappicine analog, multiplied by 100.

[2] = target: RNase H activity of HIV reverse transcriptase (Human immunodeficiency virus type 1 group M subtype B, UniProt P04585); test: Fluorescence (FRET)-based RNase H activity assay of HIV reverse transcriptase; assay type: biochemical, HIV-1; design: final concentration of 2.5 nM of the p51/p66 RT heterodimer in the assay; made in house; settings: 10 μM inhibitor concentration, activity with analog / without analog x 100
Procedure: Recently, a fluorescence-based assay to perform preliminary screens in search of HIV RNase H inhibitors has been developed. The assay, which is carried out in 96-well microplates and is adaptable to robotics, is the first high-throughput screen for RNase H and is described in further detail in the Experimental section. HIV-1 RT and human RNase H were cloned, and thus comparative analysis of inhibitor action could be conducted simultaneously.
The assay for RNase H activity of HIV reverse transcriptase was the fluorescence-based assay described in detail in the Experimental section and discussed in U.S. Provisional Patent Application Serial No. 60/318,359. Assays were carried out in the absence and in the presence of mappicine analogs (10 μM final concentration). The results are reported as % residual activity, which is the RNase H activity of the enzyme in the presence of the mappicine analog divided by the RNase H activity of the enzyme in the absence of the mappicine analog, multiplied by 100. Alternatively, the results are reported as % inhibition, which is calculated as the ratio of the RNase H activity of the enzyme in the presence of the mappicine analog to the enzyme activity in the absence of the mappicine analog, multiplied by 100, and then subtracting this number from 100.
Assay for Ribonuclease H Activity Based on Fluorescence Resonance Energy Transfer (FRET)
Preparation of the Fluorophore-RNA/Quencher-DNA Hybrid Duplex Substrate.
The RNA/DNA hybrid duplex substrate for use in the assay comprises an RNA oligonucleotide of sequence 5′-GAU CUG AGC CUG GGA GCU-3′, modified at the 3′-end with Aminolink-2 and derivatized with fluorescein isothiocyanate, to provide a modified RNA oligonucleotide of the sequence 5′-GAU CUG AGC CUG GGA GCU-fluorescein-3′, annealed to a complementary DNA oligonucleotide of the sequence 5′-AGC TCC CAG GCT CAG ATC-3′ modified at the 5′-end with Aminolink-2 and derivatized with the FRET acceptor DABCYL succinimidyl ester, to provide a modified DNA oligonucleotide of the sequence 5′-DABCYL-AGC TCC CAG GCT CAG ATC-3′.
To prepare the 3′-fluorescein-RNA/5′-DABCYL-DNA hybrid duplex substrate, a known amount of 3′-fluorescein-RNA was dissolved in 20 mM Tris buffer (pH 8.0, 37° C.) to provide a final concentration of 5 μM. Two equivalents of the 5′-DABCYL-DNA oligonucleotide were added, and the mixture was heated to 90° C. for 5 min and cooled slowly to room temperature to allow duplex formation. The positioning of the fluorescein donor at the 3′-end of the RNA oligonucleotide and the DABCYL acceptor at the 5′-end of the DNA oligonucleotide provides a very close proximity of the donor and acceptor that results in a very intense quenching of the fluorescein emission in the intact RNA/DNA hybrid duplex substrate due to the spectral overlap of the fluorescence emission of fluorescein with the absorption spectrum of DABCYL. In addition, DABCYL is non-fluorescent, and thus cannot contribute any light emission. Both of these factors result in a very low background and provide a high signal-to-noise in the assay measurements. The ratio of the donor fluorescence in the absence and in the presence of its quencher is approximately fifteen-fold.
Microplate Assay Protocol for the Measurement of RNase H Activity Using the RNA/DNA Hybrid Duplex Substrate.
Reaction assay mixtures contained 5 μl of a stock solution of 2.5 μM RNA/DNA hybrid duplex substrate added to 85 μl of assay buffer (50 mM Tris, pH 8.0, 37° C., containing 60 mM KCl and 2.5 mM MgCl2), prepared in the wells of a 96-well fluorescence microtiter plate, and warmed to 37° C. using the temperature control of the SpectraMax Gemini XS microplate spectrofluorometer (Molecular Devices). Reactions were started by the addition of 5 μl of a solution of recombinant HIV-1 reverse transcriptase (usually providing a final concentration of 2.5 nM of the p51/p66 RT heterodimer in the assay), and mixing using the automatic mixing function of the microplate spectrofluorometer. […]

| Compound | Residual activity (%) Polymerase [1] [%] | Residual activity (%) RNase H [2] [%] | Residual activity (%) Polymerase ([1]; 10 µM) | Residual activity (%) RNase H ([2]; 10 µM) |
| --- | --- | --- | --- | --- |
| CCCCCCc1c2c(nc3ccc(F)cc13)-c1cc(C(O)C(C)(C)C)c(C)c(=O)n1C2 (racemic) [8Bβ] | 50 | 97 |  |  |
| Cc1c(C(O)CCC2CCCCC2)cc2n(c1=O)Cc1c-2nc2ccccc2c1-c1ccccc1 (racemic) [3Aδ] | 32 | 104 |  |  |
| Cc1c(C(=O)CCC2CCCCC2)cc2n(c1=O)Cc1c-2nc2ccc(F)cc2c1[Si](C)(C)C [5Bδκ] | 46 | 78 |  |  |
| CCC(O)c1cc2n(c(=O)c1C)Cc1c-2nc2ccc(OC)cc2c1[Si](C)(C)C(C)(C)C (stereo not drawn) [4Dα] | 77 | 79 |  |  |
| CCCCCCc1c2c(nc3ccc(C)cc13)-c1cc(C(=O)CC)c(C)c(=O)n1C2 [8Cακ] | 31 | 92 |  |  |
| Cc1ccc2nc3c(c(-c4ccccc4)c2c1)Cn1c-3cc(C(O)CCC2CCCCC2)c(C)c1=O (stereo not drawn) [3Cδ] | 74 | 93 |  |  |
| CCC(O)c1cc2n(c(=O)c1C)Cc1c-2nc2ccc(F)cc2c1[Si](C)(C)C (stereo not drawn) [5Bα] | 82 | 105 |  |  |
| COc1ccc2nc3c(c(-c4ccccc4)c2c1)Cn1c-3cc(C(O)C(C)(C)C)c(C)c1=O (stereo not drawn) [3Dβ] | 85 | 70 |  |  |
| CCCCCCc1c2c(nc3ccc(OC)cc13)-c1cc(C(=O)CC)c(C)c(=O)n1C2 [8Dακ] |  |  | 90% and 51% | 88% and 84% |
| Cc1ccc2nc3c(c(-c4ccccc4)c2c1)Cn1c-3cc(C(O)Cc2ccccc2)c(C)c1=O (racemic) [3Cε] | 76 | 101 |  |  |
| CCC(=O)c1cc2n(c(=O)c1C)Cc1c-2nc2ccccc2c1-c1ccccc1 [3Aακ] | 64 | 87 |  |  |
| COc1ccc2nc3c(c(-c4ccccc4)c2c1)Cn1c-3cc(C(=O)Cc2ccccc2)c(C)c1=O [3Dεκ] | 73 | 88 |  |  |
| Cc1c(C(O)CCC2CCCCC2)cc2n(c1=O)Cc1c-2nc2ccc(F)cc2c1-c1ccccc1 (racemic) [3Bδ] | 81 | 99 |  |  |
| Cc1ccc2nc3c(c([Si](C)(C)C(C)(C)C)c2c1)Cn1c-3cc(C(=O)C(C)(C)C)c(C)c1=O [4Cβκ] | 67 | 65 |  |  |
| Cc1c(C(O)Cc2ccccc2)cc2n(c1=O)Cc1c-2nc2ccc(F)cc2c1-c1ccccc1 (racemic) [3Bε] | 28 | 91 |  |  |
| Cc1c(C(O)C(C)(C)C)cc2n(c1=O)Cc1c-2nc2ccc(F)cc2c1-c1ccccc1 (racemic) [3Bβ] | 78 | 75 |  |  |
| COc1ccc2nc3c(c([Si](C)(C)C(C)(C)C)c2c1)Cn1c-3cc(C(O)CCC2CCCCC2)c(C)c1=O (racemic) [4Dδ] | 51 | 87 |  |  |
| Cc1ccc2nc3c(c([Si](C)(C)C)c2c1)Cn1c-3cc(C(O)Cc2ccccc2)c(C)c1=O (racemic) [5Cε] | 87 | 93 |  |  |

| Compound | Residual activity (%) Polymerase [1] [%] | Residual activity (%) RNase H [2] [%] | Residual activity (%) Polymerase ([1]; 10 µM) | Residual activity (%) RNase H ([2]; 10 µM) |
| --- | --- | --- | --- | --- |
| CCCCCCc1c2c(nc3ccccc13)-c1cc(C(O)CC)c(C)c(=O)n1C2 (racemic) [8Aα] | 42 | 83 |  |  |
| COc1ccc2nc3c(c([Si](C)(C)C(C)(C)C)c2c1)Cn1c-3cc(C(O)Cc2ccccc2)c(C)c1=O (racemic) [4Dε] | 49 | 76 |  |  |
| CCCCCCc1c2c(nc3ccc(C)cc13)-c1cc(C(O)Cc3ccccc3)c(C)c(=O)n1C2 (racemic) [8Cε] | 76 | 76 |  |  |
| CCc1c2c(nc3ccccc13)-c1cc(C(O)CC)c(C)c(=O)n1C2 (racemic) [AG 4M] | 100 | 74 |  |  |
| CCCCCCc1c2c(nc3ccc(F)cc13)-c1cc(C(=O)CC)c(C)c(=O)n1C2 [8Bακ] | 64 | 103 |  |  |
| CCC(=O)c1cc2n(c(=O)c1C)Cc1c-2nc2ccc(OC)cc2c1[Si](C)(C)C [5Dακ] | 50 | 86 |  |  |
| CCCCCCc1c2c(nc3ccc(C)cc13)-c1cc(C(O)CCC3CCCCC3)c(C)c(=O)n1C2 (stereo not drawn) [8Cδ] | 73 | 72 |  |  |
| CCCCCCc1c2c(nc3ccc(F)cc13)-c1cc(C(=O)C(C)(C)C)c(C)c(=O)n1C2 [8Bβκ] | 44 | 81 |  |  |
| CCCCCCc1c2c(nc3ccc(C)cc13)-c1cc(C(O)CC)c(C)c(=O)n1C2 (racemic) [8Cα] | 84 | 65 |  |  |
| CCC(=O)c1cc2n(c(=O)c1C)Cc1c-2nc2ccccc2c1[Si](C)(C)C [5Aακ] | 91 | 103 |  |  |
| CCCCCCc1c2c(nc3ccccc13)-c1cc(C(=O)CCC3CCCCC3)c(C)c(=O)n1C2 [8Aδκ] | 63 | 97 |  |  |
| Cc1ccc2nc3c(c([Si](C)(C)C(C)(C)C)c2c1)Cn1c-3cc(C(=O)CCC2CCCCC2)c(C)c1=O [4Cδκ] | 52 | 96 |  |  |
| COc1ccc2nc3c(c([Si](C)(C)C)c2c1)Cn1c-3cc(C(=O)CCC2CCCCC2)c(C)c1=O [5Dδκ] | 40 | 92 |  |  |
| CCC(=O)c1cc2n(c(=O)c1C)Cc1c-2nc2ccc(F)cc2c1[Si](C)(C)C [5Bακ] | 74 | 89 |  |  |
| COc1ccc2nc3c(c(-c4ccccc4)c2c1)Cn1c-3cc(C(O)Cc2ccccc2)c(C)c1=O (racemic) [3Dε] | 61 | 79 |  |  |
| Cc1c(C(O)C(C)(C)C)cc2n(c1=O)Cc1c-2nc2ccccc2c1[Si](C)(C)C (racemic) [5Aβ] | 103 | 77 |  |  |
| CCC(O)c1cc2n(c(=O)c1C)Cc1c-2nc2ccccc2c1[Si](C)(C)C (racemic) [AG 1M] |  |  | 89% | 73% |
| CCC(O)c1cc2n(c(=O)c1C)Cc1c-2nc2ccc(OC)cc2c1-c1ccccc1 (racemic) [3Dα] | 69 | 78 |  |  |
